# Measurements published in patent US7939558B2, “Compounds having activity in increasing ion transport by mutant-CFTR and uses thereof” (The Regents of the University of California, priority 2004, dated 2011).
# Molecular target: ΔF508-CFTR (Homo sapiens, UniProt P13569, DEL508-508)
# Test: Fluorescence (YFP-H148Q/I152L) I− influx assay of ΔF508-CFTR potentiator activity in FRT cells
# Format: cell-based
# Parameters: expressed in transfected cells
# Settings: phenylglycine containing compounds, 27° C. 24 h, forskolin 20 μM, read-out: Ka
# Description: Clonal populations of Fischer rat thyroid (FRT) epithelial cells stably co-expressing human ΔF508-CFTR and the high-sensitivity halide-sensing green fluorescent analog YFP-H148Q/I152L (Galietta et al., A.S. (2001) FEBS Lett. 499, 220-224) were generated by liposome transfection and limiting dilution with Zeocin/G418 selection. More than 100 clones were evaluated for high fluorescence and ΔF508-CFTR plasma membrane targeting after growth at 27° C. for 24 hours. For screening, cells were cultured on plastic in Coon's modified F12 medium supplemented with 10% fetal bovine serum, 2 mM L-glutamine, 100 U/ml penicillin, and 100 μg/ml streptomycin, and plated on black 96-well microplates (Corning-Costar 3904) at 30,000 cells/well. For short-circuit measurements cells were cultured on Snapwell permeable supports (Corning-Costar) at 500,000 cells/insert. Human nasal epithelium cells from CF patients were cultured on Snapwell inserts and allowed to differentiate in a hormone-supplemented medium (Galietta et al., Am. J. Physiol., […]). Some measurements were done using stably transfected FRT cells expressing YFP-H148Q and wildtype- or G551D-CFTR (Galietta et al., (2001) J. Biol. Chem. 276, 19723-19728). Patch clamp experiments were done on ΔF508-CFTR-expressing FRT cells plated in 35-mm Petri dishes.
# Screening was carried out using a Beckman integrated system containing a 3-meter robotic arm, CO2 incubator containing microplate carousel, plate-washer, liquid handling workstation, bar code reader, delidding station, plate sealer, and two FluoStar fluorescence plate readers (Galaxy, BMG Lab Technologies), each equipped with dual syringe pumps and HQ500/20X ([…]) excitation and HQ535/30M (535±15 nm) emission filters (Chroma). Software was written in VBA (Visual Basic for Applications) to compute baseline-subtracted fluorescence slopes (giving halide influx rates).
# For assay of ΔF508-CFTR potentiator activity the incubator (27° C., 90% humidity, 5% CO2/95% air) was loaded with forty-to-sixty 96-well plates containing FRT cells. After an 18-24 hour incubation plates were washed 3 times with PBS (300 μl/wash) leaving 50 μl PBS. 10 μl of PBS containing 120 μM forskolin was added, and after 5 min test compounds (0.6 μl of 0.25 mM DMSO solution) were added to each well to give 2.5 μM final compound concentrations. After 15 min, 96-well plates were transferred to a plate reader for fluorescence assay. Each well was assayed individually for I^− influx by recording fluorescence continuously (200 ms per point) for 2 seconds (baseline) and then for 12 seconds after rapid (<1 s) addition of 160 μL of isosmolar PBS in which 137 mM Cl^− was replaced by I^−. I^− influx rates were computed from initial fluorescence versus time-curve slopes (determined by 3rd order polynomial regression) after normalization for total fluorescence (background subtracted initial fluorescence). All compound plates contained negative control (DMSO vehicle alone) and positive controls (genistein, 5 μM and 50 μM). Assay analysis indicated a Z′-factor of >0.7 (Zhang et al., J. Biomol. Screen 4:67-73 (1999)).
# The high-throughput screen was designed to identify compounds that activated ΔF508-CFTR when expressed at the cell plasma membrane. FRT epithelial cells co-expressing ΔF508-CFTR and a high sensitivity yellow fluorescent protein-based halide indicator were incubated at 27° C. for 24 h to permit ΔF508-CFTR plasma membrane targeting (FIG. 1, panel A). After washing, forskolin (20 μM) and test compounds (2.5 μM) were added to individual wells of 96-well plates. The I^− influx assay was carried out ˜15 min later by measurement of the time course of decreasing YFP fluorescence after creation of an inwardly-directed I^− gradient. A high concentration of forskolin was used to identify ΔF508-CFTR potentiators that may interact directly with ΔF508-CFTR rather than alter cAMP concentration. […]
# Chain of ΔF508-CFTR (P13569 with tags, fused parts or gaps DEL508-508): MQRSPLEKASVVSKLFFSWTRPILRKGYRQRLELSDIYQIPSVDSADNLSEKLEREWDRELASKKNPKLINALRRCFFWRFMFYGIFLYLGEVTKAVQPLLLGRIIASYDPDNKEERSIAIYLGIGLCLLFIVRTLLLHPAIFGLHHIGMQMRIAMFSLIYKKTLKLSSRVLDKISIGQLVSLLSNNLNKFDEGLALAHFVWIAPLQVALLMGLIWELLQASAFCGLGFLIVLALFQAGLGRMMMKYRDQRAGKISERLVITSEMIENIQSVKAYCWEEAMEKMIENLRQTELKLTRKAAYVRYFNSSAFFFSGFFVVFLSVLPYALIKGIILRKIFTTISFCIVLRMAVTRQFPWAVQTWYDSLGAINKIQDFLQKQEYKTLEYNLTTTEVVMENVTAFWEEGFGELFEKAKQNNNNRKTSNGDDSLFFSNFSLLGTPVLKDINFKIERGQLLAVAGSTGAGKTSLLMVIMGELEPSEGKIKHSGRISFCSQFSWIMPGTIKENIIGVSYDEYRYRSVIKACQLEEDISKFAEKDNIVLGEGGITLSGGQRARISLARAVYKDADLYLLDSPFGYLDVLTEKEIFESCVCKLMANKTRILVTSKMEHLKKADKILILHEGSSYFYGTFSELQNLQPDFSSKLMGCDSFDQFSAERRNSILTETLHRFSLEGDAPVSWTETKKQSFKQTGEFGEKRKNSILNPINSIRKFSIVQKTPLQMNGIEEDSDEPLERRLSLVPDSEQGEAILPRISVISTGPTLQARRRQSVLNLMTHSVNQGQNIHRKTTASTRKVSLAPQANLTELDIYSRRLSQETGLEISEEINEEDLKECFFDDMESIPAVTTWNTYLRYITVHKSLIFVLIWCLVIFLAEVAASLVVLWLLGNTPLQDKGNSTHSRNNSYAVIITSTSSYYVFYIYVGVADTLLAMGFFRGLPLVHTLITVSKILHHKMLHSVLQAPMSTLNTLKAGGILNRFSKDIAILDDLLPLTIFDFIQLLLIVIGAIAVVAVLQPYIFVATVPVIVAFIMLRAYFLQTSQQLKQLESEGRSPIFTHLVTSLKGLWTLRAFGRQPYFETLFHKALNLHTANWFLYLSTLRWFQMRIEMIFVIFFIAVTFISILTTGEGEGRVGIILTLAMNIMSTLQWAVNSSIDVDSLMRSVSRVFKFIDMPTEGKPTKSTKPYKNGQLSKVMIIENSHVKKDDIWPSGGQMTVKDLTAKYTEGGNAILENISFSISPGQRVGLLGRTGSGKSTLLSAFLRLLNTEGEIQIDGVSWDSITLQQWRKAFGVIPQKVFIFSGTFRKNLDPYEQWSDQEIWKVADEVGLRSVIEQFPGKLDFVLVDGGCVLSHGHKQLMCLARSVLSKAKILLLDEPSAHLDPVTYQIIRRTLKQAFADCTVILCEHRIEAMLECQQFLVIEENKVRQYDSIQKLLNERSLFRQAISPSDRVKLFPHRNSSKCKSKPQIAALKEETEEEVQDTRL
row,EC50 [nM],Compound
1,300,"CC(=O)NCC(=O)N(C)C(C(=O)Nc1ccc2c(c1)OCCO2)c1ccccc1 (centres unmarked) [Compound P-2, 2-[(2-Acetylamino-acetyl)-methyl-amino]-N-(2,3-dihydro-benzo[1,4]dioxin-6-yl)-2-phenyl-acetamide]"
2,340,"COc1ccc(C(C(=O)Nc2ccc(C(C)C)cc2)N(C)C(=O)Cc2c[nH]c3ccccc23)cc1 (centres unmarked) [Compound P-3, 2-[(2-1H-Indol-3-yl-acetyl)-methyl-amino]-N-(4-isopropyl-phenyl)-2-(4-methoxy-phenyl)-acetamide]"
3,700,"COc1ccc(NC(=O)C(c2ccccc2)N(C)C(=O)Cc2c[nH]c3ccccc23)cc1 (centres unmarked) [Compound P-5, 2-[(2-1H-Indol-3-yl-acetyl)-methyl-amino]-N-(4-methoxy-phenyl)-2-phenyl-acetamide]"
4,880,"CC(C)c1ccc(NC(=O)C(NC(=O)Cc2c[nH]c3ccccc23)c2ccccc2)cc1 (centres unmarked) [Compound P-6, 2-(2-1H-Indol-3-yl-acetylamino)-N-(4-isopropyl-phenyl)-2-phenyl-acetamide]"
5,1330,"Cc1ccc(C(C(=O)Nc2ccc3c(c2)OCO3)N(C)C(=O)Cc2c[nH]c3ccccc23)cc1 (centres unmarked) [Compound P-7, N-Benzo[1,3]dioxol-5-yl-2-[(2-1H-indol-3-yl-acetyl)-methyl-amino]-2-p-tolyl-acetamide]"
6,2130,"COc1ccc(NC(=O)C(c2ccc(OC)cc2)N(C)C(=O)Cc2c[nH]c3ccccc23)cc1 (centres unmarked) [Compound P-8, 2-[(2-1H-Indol-3-yl-acetyl)-methyl-amino]-2,N-bis-(4-methoxy-phenyl)-acetamide]"
7,2330,"Cc1ccc(C(NC(=O)Cc2cc3ccccc3[nH]2)C(=O)Nc2ccc3c(c2)OCCO3)cc1 (centres unmarked) [Compound P-9, N-(2,3-Dihydro-benzo[1,4]dioxin-6-yl)-2-(2-1H-indol-2-yl-acetylamino)-2-p-tolyl-acetamide]"
8,2710,"COc1ccc(C(C(=O)Nc2ccc3c(c2)OCCO3)N(C)C(=O)Cc2c[nH]c3ccccc23)cc1 (centres unmarked) [Compound P-10, N-(2,3-Dihydro-benzo[1,4]dioxin-6-yl)-2-[(2-1H-indol-3-yl-acetyl)-methyl-amino]-2-(4-methoxy-phenyl)-acetamide]"

# Same assay, conditions: sulfonamide containing compounds, 27° C. 24 h, forskolin 20 μM, read-out: Ka
row,EC50 [nM],Compound
1,20,CCN(c1ccccc1)S(=O)(=O)c1ccc2[nH]cc(C(=O)NC3CCCCCC3)c(=O)c2c1 [Compound S-2]
2,30,CCN(c1ccccc1)S(=O)(=O)c1ccc2[nH]cc(C(=O)NC3CCCCC3)c(=O)c2c1 [Compound S-4]
3,110,C=CCN(c1ccccc1)S(=O)(=O)c1ccc2[nH]cc(C(=O)NCCCC)c(=O)c2c1 [Compound S-6]
4,120,C=CCN(c1ccccc1)S(=O)(=O)c1ccc2[nH]cc(C(=O)NC3CCCCCC3)c(=O)c2c1 [Compound S-7]
5,130,Cc1ccc(C)c(N(C)S(=O)(=O)c2ccc3[nH]cc(C(=O)NCc4ccccn4)c(=O)c3c2)c1 [Compound S-8]
6,140,"CCN(c1ccccc1)S(=O)(=O)c1ccc2[nH]cc(C(=O)NCCCOC)c(=O)c2c1 [Compound S-9, 6-(Ethyl-phenyl-sulfamoyl)-4-oxo-1,4-dihydro-quinoline-3-carboxylic acid (3-methoxy-propyl)-amide]"
7,160,C=CCN(c1ccccc1)S(=O)(=O)c1ccc2[nH]cc(C(=O)NCc3ccccn3)c(=O)c2c1 [Compound S-11]
8,190,C=CCN(c1ccccc1)S(=O)(=O)c1ccc2[nH]cc(C(=O)NCCCCCC)c(=O)c2c1 [Compound S-12]
9,200,CCCCNC(=O)c1c[nH]c2ccc(S(=O)(=O)N(C)c3ccccc3C)cc2c1=O [Compound S-13]
10,200,CCOc1ccccc1N(C)S(=O)(=O)c1ccc2[nH]cc(C(=O)NCC3CCCO3)c(=O)c2c1 (centres unmarked) [Compound S-14]
11,220,CCCCCNC(=O)c1c[nH]c2ccc(S(=O)(=O)N(C)c3cccc(C)c3)cc2c1=O [Compound S-15]
12,240,CCN(c1ccccc1)S(=O)(=O)c1ccc2[nH]cc(C(=O)NCCC3=CCCCC3)c(=O)c2c1 [Compound S-16]
13,240,CCN(c1ccccc1)S(=O)(=O)c1ccc2[nH]cc(C(=O)NCC3CCCO3)c(=O)c2c1 (centres unmarked) [Compound S-17]
14,270,CCc1ccccc1N(C)S(=O)(=O)c1ccc2[nH]cc(C(=O)NCc3ccccn3)c(=O)c2c1 [Compound S-18]
15,290,COCCCNC(=O)c1c[nH]c2ccc(S(=O)(=O)N(C)c3cc(C)ccc3C)cc2c1=O [Compound S-19]
16,330,"CCCCNC(=O)c1c[nH]c2ccc(S(=O)(=O)N(C)c3c(C)cccc3C)cc2c1=O [Compound S-20, 6-[(2,6-Dimethyl-phenyl)-methyl-sulfamoyl]-4-oxo-1,4-dihydro-quinoline-3-carboxylic acid butylamide]"
17,330,"CCN(c1ccc(F)cc1)S(=O)(=O)c1ccc2[nH]cc(C(=O)NC3CCCC3)c(=O)c2c1 [Compound S-21, 6-[Ethyl-(4-fluoro-phenyl)-sulfamoyl]-4-oxo-1,4-dihydro-quinoline-3-carboxylic acid cyclopentylamide]"
18,360,CCOC(CNC(=O)c1c[nH]c2ccc(S(=O)(=O)N(C)c3ccc(CC)cc3)cc2c1=O)OCC [Compound S-22]
19,370,COc1ccc(Cl)cc1N(C)S(=O)(=O)c1ccc2[nH]cc(C(=O)NCCC3=CCCCC3)c(=O)c2c1 [Compound S-23]
20,380,CCN(CC)S(=O)(=O)c1ccc2[nH]cc(C(=O)NCc3ccc4c(c3)OCO4)c(=O)c2c1 [Compound S-24]
21,440,"CCC(C)NC(=O)c1c[nH]c2ccc(S(=O)(=O)N(C)c3cccc(C)c3)cc2c1=O (centres unmarked) [Compound S-25, 6-(Methyl-m-tolyl-sulfamoyl)-4-oxo-1,4-dihydro-quinoline-3-carboxylic acid sec-butylamide]"
22,440,CCc1ccccc1N(C)S(=O)(=O)c1ccc2[nH]cc(C(=O)NC(C)CC)c(=O)c2c1 (centres unmarked) [Compound S-26]
23,460,CCN(c1ccccc1)S(=O)(=O)c1ccc2[nH]cc(C(=O)NCc3ccco3)c(=O)c2c1 [Compound S-27]
24,480,CCN(c1cccc(C)c1)S(=O)(=O)c1ccc2[nH]cc(C(=O)NCCCOC)c(=O)c2c1 [Compound S-28]
25,490,"Cc1cccc(N(C)S(=O)(=O)c2ccc3[nH]cc(C(=O)NCCC4=CCCCC4)c(=O)c3c2)c1 [Compound S-29, 6-(Methyl-m-tolyl-sulfamoyl)-4-oxo-1,4-dihydro-quinoline-3-carboxylic acid (2-cyclohex-1-enyl-ethyl)-amide]"
26,540,"CCN(c1ccc(F)cc1)S(=O)(=O)c1ccc2[nH]cc(C(=O)NCC3CCCO3)c(=O)c2c1 (centres unmarked) [Compound S-30, 6-[Ethyl-(4-fluoro-phenyl)-sulfamoyl]-4-oxo-1,4-dihydro-quinoline-3-carboxylic acid (tetrahydro-furan-2-ylmethyl)-amide]"
27,560,CCCNC(=O)c1c[nH]c2ccc(S(=O)(=O)N(C)c3cccc(C)c3)cc2c1=O [Compound S-31]
28,570,"O=C(NC1CCCCC1)c1c[nH]c2ccc(S(=O)(=O)N3CCc4ccccc43)cc2c1=O [Compound S-32, 6-(2,3-Dihydro-indole-1-sulfonyl)-4-oxo-1,4-dihydro-quinoline-3-carboxylic acid cyclohexylamide]"
29,590,CCN(c1ccccc1)S(=O)(=O)c1ccc2[nH]cc(C(=O)NCc3ccc(C)cc3)c(=O)c2c1 [Compound S-33]
30,590,CCOC(=O)C(NC(=O)c1c[nH]c2ccc(S(=O)(=O)N(C)C3CCCCC3)cc2c1=O)C(=O)OCC [Compound S-34]
